Measured values as given in patent US12653809B2, “Urea, amide, and substituted heteroaryl compounds for CBL-B inhibition” (Nurix Therapeutics, Inc., priority 2019, dated 2026).
Where two headings read alike, the source gives them in different places.

Molecular target: T1, Cbl-b (truncated variant, UniProt number Q13191) (Homo sapiens, UniProt Q13191)
T1 construct: made in house
Test: Cbl-b activity assay (TR-FRET, interaction of Cbl-b with UbcH5B-Ub)
Format: biochemical
Text: As described in Biological Example 1A, a Cbl-b activity assay (Cbl-b inhibition assay) used to measure the IC50 values for Cbl-b inhibition uses a mixture comprising candidate compound, Cbl-b (truncated, with an Avitag, and biotinylated), a fluorescently-labeled E2 enzyme UbcH5B labelled with ubiquitin conjugated to BODIPY-fluorescein (UbcH5B-Ub), streptavidin-terbium, and assay buffer. In one embodiment, the Cbl-b activity assay (Cbl-b inhibition assay) used to measure IC50 for inhibition of Cbl-b uses the conditions described in Biological Example 1A with 12 nM Cbl-b. […] In another embodiment, the Cbl-b activity assay (Cbl-b inhibition assay) used to measure IC50 for inhibition of Cbl-b uses the conditions described in Biological Example 1B, with candidate compound, 0.125 nM Cbl-b (truncated, with an avitag, and biotinylated), fluorescently labelled inhibitor probe, and assay buffer. Displacement of the inhibitor probe indicates Cbl-b activity.
Candidate compounds isolated from screening assays were evaluated for their ability to bind and inhibit Cbl-b, an E3 ubiquitin-protein ligase.
The ability of candidate compounds to inhibit Cbl-b activity was measured by monitoring the interaction of Cbl-b with UbcH5B-Ub in the presence of the candidate compound. A truncated variant of Cbl-b (UniProt number Q13191; SEQ ID NO:1) containing an Avitag at its N-terminus was co-expressed with BirA biotin ligase and purified using a standard protocol (see Dou et al., Nature Structural and Molecular Biology 8: 982-987, 2013; Avidity LLC).
Fluorescently labeled UbcH5B-Ub was prepared by conjugating ubiquitin (Ub), labeled at its N-terminus with Bodipy-Fluorescein, to UbcH5B, an E2 enzyme, harboring a cysteine to lysine mutation at position 85. This mutation is similar to a mutation that was previously reported (see Dou et al., Nature Structural and Molecular Biology 8: 982-987, 2013). Cbl-b activity assays were performed in a 384-well plate at room temperature in a 10 μL reaction volume by pre-incubating 12 nM Cbl-b (final concentration) in an assay buffer containing 50 mM HEPES pH 7.0, 100 mM NaCl, 0.01% Triton X-100, 0.01% BSA, and 1 mM DTT in the presence of a candidate compound in 1% DMSO (final concentration, High Conditions) for one hour. After incubation in the presence of the candidate compound, the plate was incubated for an additional 1.5 hours in the presence of 60 nM Src kinase with 1 mM ATP and 5 mM MgCl2 (final concentrations). Alternatively, compounds were tested as described above with assay buffer containing 50 mM NaCl instead of 100 mM NaCl and 30 nM Src kinase instead of 60 nM Src kinase (Low Conditions). Src kinase was prepared as previously described (see Kobashigawa et al., Proc Natl Acad Sci USA, 108: 20579-20584, 2011). […] The plate was incubated for one hour. Following the one hour incubation, the plates were read for TR-FRET signal at 520/620 nm using Envision plate reader (Perkin Elmer). The presence of a FRET signal that indicated Cbl-b was not inhibited by the compound candidate. The absence of a FRET signal indicated Cbl-b was inhibited by the compound candidate and was therefore a Cbl-b inhibitor.
The resulting data for the Cbl-b activity assays were analyzed using standard methods to report the IC50 values of the tested compounds (Tables 3-4). The resulting data for the Cbl-b binding assay was solvent corrected and double-referenced prior to analysis. All data were globally fit to a steady-state affinity and kinetic binding model where applicable. Compounds were ranked into bins A through D as follows for IC50: A indicates <0.1 μM, B indicates 0.1 μM≤IC50<1 μM, C indicates 1 μM≤IC50<5 μM, and D indicates 5 μM≤IC50.

[1] = Biological Example 1A, low or high conditions not stated, read-out: IC50 values in the Cbl-b inhibition assay of Biological Example 1A
[2] = high conditions: 100 mM NaCl, 60 nM Src kinase, 12 nM Cbl-b, read-out: Cbl-b activity IC50
[3] = low conditions: 50 mM NaCl, 30 nM Src kinase, 12 nM Cbl-b, read-out: Cbl-b activity IC50

T1 sequence (Q13191 36-427): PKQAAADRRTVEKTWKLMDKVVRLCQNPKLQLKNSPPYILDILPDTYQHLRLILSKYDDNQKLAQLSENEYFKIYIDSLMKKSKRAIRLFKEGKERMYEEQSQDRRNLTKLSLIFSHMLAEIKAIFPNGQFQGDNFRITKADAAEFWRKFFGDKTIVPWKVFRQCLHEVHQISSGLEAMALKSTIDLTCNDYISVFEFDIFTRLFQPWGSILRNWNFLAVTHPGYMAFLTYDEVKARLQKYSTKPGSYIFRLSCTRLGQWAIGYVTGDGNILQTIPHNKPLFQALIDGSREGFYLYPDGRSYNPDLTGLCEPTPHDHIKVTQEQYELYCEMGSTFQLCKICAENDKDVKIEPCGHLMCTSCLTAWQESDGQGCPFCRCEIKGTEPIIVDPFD

Row | SMILES | IC50 [1] | IC50 [2] | IC50 [3]
1 | C[C@H](Cc1nncn1C)c1cccc(NC(=O)N2C[C@H](CO)[C@@H](C)C2)c1 (relative stereo) [Example 17, (3R*,4R*)-3-(hydroxymethyl)-4-methyl-N-(3-((R)-1-(4-methyl-4H-1,2,4-triazol-3-yl)propan-2-yl)phenyl)pyrrolidine-1-carboxamide] | 1000 to 5000 nM | 1000 to 5000 nM | 
2 | C[C@H](Cc1nncn1C)c1cccc(NC(=O)N2CCOc3cccnc32)c1 [Example 10, (R)—N-(3-(1-(4-methyl-4H-1,2,4-triazol-3-yl)propan-2-yl)phenyl)-2,3-dihydro-4H-pyrido[3,2-b][1,4]oxazine-4-carboxamide] | < 100 nM | < 100 nM | 
3 | COC(=O)C1(C(F)(F)F)CCN(C(=O)Nc2cccc([C@H](C)Cc3nncn3C)c2)C1 (stereo partly drawn) [Example 11, Methyl 1-((3-((R)-1-(4-methyl-4H-1,2,4-triazol-3-yl)propan-2-yl)phenyl)carbamoyl)-3-(trifluoromethyl)pyrrolidine-3-carboxylate] | 1000 to 5000 nM | 1000 to 5000 nM | 
4 | CNC(=O)C1(C)CCN(C(=O)Nc2cccc([C@H](C)Cc3nncn3C)c2)C1 (stereo partly drawn) [Example 12, N^3,3-dimethyl-N′-(3-((R)-1-(4-methyl-4H-1,2,4-triazol-3-yl)propan-2-yl)phenyl)pyrrolidine-1,3-dicarboxamide] | ≥ 5000 nM | ≥ 5000 nM | 
5 | Cc1cccc2c1CN(C(=O)Nc1cccc([C@H](C)Cc3nncn3C)c1)C2 [Example 13, (R)-4-methyl-N-(3-(1-(4-methyl-4H-1,2,4-triazol-3-yl)propan-2-yl)phenyl)isoindoline-2-carboxamide] | 100 to 1000 nM | 100 to 1000 nM | 
6 | C[C@H](Cc1nncn1C)c1ccnc(C(=O)Nc2cccc(C(F)(F)F)n2)c1 [Example 14, 4-[(2R)-1-(4-methyl-4H-1,2,4-triazol-3-yl)propan-2-yl]-N-[6-(trifluoromethyl)pyridin-2-yl]pyridine-2-carboxamide] | 100 to 1000 nM | 100 to 1000 nM | 
7 | C[C@H](Cc1nncn1C)c1cccc(NC(=O)N2CCC(C(=O)O)(C(F)(F)F)C2)c1 (stereo partly drawn) [Example 15, 1-((3-((R)-1-(4-methyl-4H-1,2,4-triazol-3-yl)propan-2-yl)phenyl)carbamoyl)-3-(trifluoromethyl)pyrrolidine-3-carboxylic acid] | 1000 to 5000 nM | 1000 to 5000 nM | 
8 | C[C@H](Cc1nncn1C)c1cccc(C(=O)Nc2cccc(C(F)(F)F)n2)c1 [Example 18, (R)-3-(1-(4-methyl-4H-1,2,4-triazol-3-yl)propan-2-yl)-N-(6-(trifluoromethyl)pyridin-2-yl)benzamide] | ≥ 5000 nM | ≥ 5000 nM | 
9 | C[C@H](Cc1nncn1C)c1cccc(NC(=O)N2CC(C)(C)Oc3cccnc32)c1 [Example 19, (R)-2,2-dimethyl-N-(3-(1-(4-methyl-4H-1,2,4-triazol-3-yl)propan-2-yl)phenyl)-2,3-dihydro-4H-pyrido[3,2-b][1,4]oxazine-4-carboxamide] | < 100 nM | < 100 nM | 
10 | CNC(=O)C1(C(F)(F)F)CCN(C(=O)Nc2cccc([C@H](C)Cc3nncn3C)c2)C1 (stereo partly drawn) [Example 20, N^3-methyl-N^1-(3-((R)-1-(4-methyl-4H-1,2,4-triazol-3-yl)propan-2-yl)phenyl)-3-(trifluoromethyl)pyrrolidine-1,3-dicarboxamide] |  | 100 to 1000 nM | 
11 | C[C@H](Cc1nncn1C)c1cccc(NC(=O)N2CCOc3cc(Br)cnc32)c1 [Example 21, (R)-7-bromo-N-(3-(1-(4-methyl-4H-1,2,4-triazol-3-yl)propan-2-yl)phenyl)-2,3-dihydro-4H-pyrido[3,2-b][1,4]oxazine-4-carboxamide] |  | 100 to 1000 nM | 
12 | C[C@H](Cc1nncn1C)c1cccc(NC(=O)N2CC(C)(C)c3cccnc32)c1 [Example 22, (R)-3,3-dimethyl-N-(3-(1-(4-methyl-4H-1,2,4-triazol-3-yl)propan-2-yl)phenyl)-2,3-dihydro-1H-pyrrolo[2,3-b]pyridine-1-carboxamide] |  | 100 to 1000 nM | 
13 | Cn1cnnc1CC1(c2cccc(NC(=O)N3CCOc4cccnc43)c2)COC1 [Example 23, N-(3-(3-((4-methyl-4H-1,2,4-triazol-3-yl)methyl)oxetan-3-yl)phenyl)-2,3-dihydro-4H-pyrido[3,2-b][1,4]oxazine-4-carboxamide] |  | 100 to 1000 nM | 
14 | Cn1cnnc1C(F)(F)[C@](C)(F)c1cccc(NC(=O)N2CCOc3cccnc32)c1 [Example 24, (R)—N-(3-(1,1,2-trifluoro-1-(4-methyl-4H-1,2,4-triazol-3-yl)propan-2-yl)phenyl)-2,3-dihydro-4H-pyrido[3,2-b][1,4]oxazine-4-carboxamide] |  | 100 to 1000 nM | 

Other lines, results leading:

Row | IC50 [1] | IC50 [2] | IC50 [3] | SMILES
15 | ≥ 5000 nM |  | ≥ 5000 nM | CC(Sc1nncn1C)c1cccc(C(=O)Nc2cccc(C(F)(F)F)n2)c1 (centres unmarked) [Example 1, 3-(1-((4-methyl-4H-1,2,4-triazol-3-yl)thio)ethyl)-N-(6-(trifluoromethyl)pyridin-2-yl)benzamide]
16 | 100 to 1000 nM |  | 100 to 1000 nM | C[C@H](Sc1nncn1C)c1cccc(NC(=O)Nc2ccccn2)c1 [Example 2, (S)-1-(3-(1-((4-methyl-4H-1,2,4-triazol-3-yl)thio)ethyl)phenyl)-3-(pyridin-2-yl)urea]
17 | 100 to 1000 nM | 100 to 1000 nM |  | C[C@H](Sc1nncn1C)c1cccc(NC(=O)Nc2cccc(C(F)(F)F)n2)c1 [Example 3, (S)-1-(3-(1-((4-methyl-4H-1,2,4-triazol-3-yl)thio)ethyl)phenyl)-3-(6-(trifluoromethyl)pyridin-2-yl)urea]
18 |  | ≥ 5000 nM |  | COc1cccc(NC(=O)Nc2cccc([C@H](C)Sc3nncn3C)c2)n1 [Example 4, (S)-1-(6-methoxypyridin-2-yl)-3-(3-(1-((4-methyl-4H-1,2,4-triazol-3-yl)thio)ethyl)phenyl)urea]
19 |  |  | ≥ 5000 nM | C[C@H](Sc1nncn1C)c1cccc(NC(=O)NCc2ccccc2)c1 [Example 5, (S)-1-benzyl-3-(3-(1-((4-methyl-4H-1,2,4-triazol-3-yl)thio)ethyl)phenyl)urea]
20 |  | ≥ 5000 nM |  | C[C@H](Sc1nncn1C)c1cccc(NC(=O)Nc2ccccc2)c1 [Example 6, (S)-1-(3-(1-((4-methyl-4H-1,2,4-triazol-3-yl)thio)ethyl)phenyl)-3-phenylurea]
21 |  | ≥ 5000 nM |  | C[C@H](Sc1nncn1C)c1cccc(NC(=O)N2CCc3ccccc32)c1 [Example 7, (S)—N-(3-(1-((4-methyl-4H-1,2,4-triazol-3-yl)thio)ethyl)phenyl)indoline-1-carboxamide]
22 |  | ≥ 5000 nM |  | C[C@H](Sc1nncn1C)c1cccc(NC(=O)N2CCCc3ccccc32)c1 [Example 8, (S)—N-(3-(1-((4-methyl-4H-1,2,4-triazol-3-yl)thio)ethyl)phenyl)-3,4-dihydroquinoline-1(2H)-carboxamide]
23 | 100 to 1000 nM | 100 to 1000 nM |  | C[C@H](Cc1nncn1C)c1cccc(NC(=O)N2CCCc3cccnc32)c1 [Example 9, (R)—N-(3-(1-(4-methyl-4H-1,2,4-triazol-3-yl)propan-2-yl)phenyl)-3,4-dihydro-1,8-naphthyridine-1(2H)-carboxamide]
24 | 100 to 1000 nM | 100 to 1000 nM |  | C[C@H](Cc1nncn1C)c1cccc(NC(=O)N2CCc3cccnc32)c1 [Example 16, (R)—N-(3-(1-(4-methyl-4H-1,2,4-triazol-3-yl)propan-2-yl)phenyl)-2,3-dihydro-1H-pyrrolo[2,3-b]pyridine-1-carboxamide]
